Target: human NK-3 receptor (Homo sapiens (Human), UniProt P29371)
Experiment: 3H-SB222200 binding competition assay with human NK-3 receptor
Conditions: 3H-SB222200 displacement, CHO cell membranes expressing human NK3 receptor; read-out: Ki range
Summary of the method: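 Radioligand displacement: 5 nM tritiated SB222200 competed by varying compound concentrations on recombinant CHO membranes bearing human NK3, buffer pH 7.4 with HEPES, NaCl, CaCl2, MgCl2, BSA and saponin. Filter-bound radioactivity quantified; calculated Ki given as ranges from +++ (<500 nM) to # (>5 μM).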

Sequence of human NK-3 receptor (P29371 whole entry): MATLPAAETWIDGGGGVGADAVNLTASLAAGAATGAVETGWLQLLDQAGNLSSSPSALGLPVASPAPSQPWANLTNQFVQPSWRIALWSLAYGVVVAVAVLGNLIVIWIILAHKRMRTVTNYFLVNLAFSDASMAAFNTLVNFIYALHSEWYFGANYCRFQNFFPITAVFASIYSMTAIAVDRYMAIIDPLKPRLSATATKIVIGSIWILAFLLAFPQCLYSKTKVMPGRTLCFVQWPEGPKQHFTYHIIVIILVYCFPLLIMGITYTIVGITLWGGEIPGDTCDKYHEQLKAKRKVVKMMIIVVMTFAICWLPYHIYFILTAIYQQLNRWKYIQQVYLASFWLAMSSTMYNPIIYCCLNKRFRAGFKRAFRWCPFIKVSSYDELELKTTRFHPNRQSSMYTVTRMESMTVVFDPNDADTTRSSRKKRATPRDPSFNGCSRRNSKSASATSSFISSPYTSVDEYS

Ki | SMILES
1000 to 5000 nM | O=C(c1ccc(-c2ccccc2)cc1)N1CCn2c(nnc2-c2csc(CS(=O)(=O)c3ccc(Cl)cc3)n2)C1 [Compound 199, [1,1′-biphenyl]-4-yl(3-(2-(((4-chlorophenyl)sulfonyl)methyl)thiazol-4-yl)-5,6-dihydro-[1,2,4]triazolo[4,3-a]pyrazin-7(8H)-yl)methanone]
500 to 1000 nM | O=C(c1ccc(-c2ccc(F)cc2)cc1)N1CCn2c(nnc2-c2csc(CS(=O)(=O)c3ccc(Cl)cc3)n2)C1 [Compound 200, (3-(2-(((4-chlorophenyl)sulfonyl)methyl)thiazol-4-yl)-5,6-dihydro-[1,2,4]triazolo[4,3-a]pyrazin-7(8H)-yl)(4′-fluoro-[1,1′-biphenyl]-4-yl)methanone]
1000 to 5000 nM | COc1ccccc1-c1nc(-c2nnc3n2CCN(C(=O)c2ccc(F)cc2)C3)cs1 [Compound 201, (4-fluorophenyl)(3-(2-(2-methoxyphenyl)thiazol-4-yl)-5,6-dihydro-[1,2,4]triazolo[4,3-a]pyrazin-7(8H)-yl)methanone]
< 500 nM | COc1ccccc1-c1nc(-c2nnc3n2CCN(C(=O)c2ccc(-c4cccs4)cc2)C3)cs1 [Compound 202, (3-(2-(2-methoxyphenyl)thiazol-4-yl)-5,6-dihydro-[1,2,4]triazolo[4,3-a]pyrazin-7(8H)-yl)(4-(thiophen-2-yl)phenyl)methanone]
500 to 1000 nM | COc1ccccc1-c1nc(-c2nnc3n2CCN(C(=O)c2ccc(-c4ccccc4)cc2)C3)cs1 [Compound 203, [1,1′-biphenyl]-4-yl(3-(2-(2-methoxyphenyl)thiazol-4-yl)-5,6-dihydro-[1,2,4]triazolo[4,3-a]pyrazin-7(8H)-yl)methanone]
< 500 nM | O=C(c1ccc(-c2ccccc2)cc1)N1CCn2c(nnc2-c2nc(-c3ccc(F)cc3)no2)C1 [Compound 204, [1,1′-biphenyl]-4-yl(3-(3-(4-fluorophenyl)-1,2,4-oxadiazol-5-yl)-5,6-dihydro-[1,2,4]triazolo[4,3-a]pyrazin-7(8H)-yl)methanone]
500 to 1000 nM | O=C(c1ccc(-c2ccc(F)cc2)cc1)N1CCn2c(nnc2-c2nc(-c3ccc(F)cc3)no2)C1 [Compound 205, (4′-fluoro-[1,1′-biphenyl]-4-yl)(3-(3-(4-fluorophenyl)-1,2,4-oxadiazol-5-yl)-5,6-dihydro-[1,2,4]triazolo[4,3-a]pyrazin-7(8H)-yl)methanone]
1000 to 5000 nM | O=C(c1ccc(F)cc1)N1CCn2c(nnc2-c2csc(-c3cccc(F)c3)n2)C1 [Compound 206, (4-fluorophenyl)(3-(2-(3-fluorophenyl)thiazol-4-yl)-5,6-dihydro-[1,2,4]triazolo[4,3-a]pyrazin-7(8H)-yl)methanone]
< 500 nM | O=C(c1ccc(-c2cccs2)cc1)N1CCn2c(nnc2-c2csc(-c3cccc(F)c3)n2)C1 [Compound 207, (3-(2-(3-fluorophenyl)thiazol-4-yl)-5,6-dihydro-[1,2,4]triazolo[4,3-a]pyrazin-7(8H)-yl)(4-(thiophen-2-yl)phenyl)methanone]
1000 to 5000 nM | CC(C)c1nc(-c2nnc3n2CCN(C(=O)c2ccc(F)cc2)C3)cs1 [Compound 208, (4-fluorophenyl)(3-(2-isopropylthiazol-4-yl)-5,6-dihydro-[1,2,4]triazolo[4,3-a]pyrazin-7(8H)-yl)methanone]
< 500 nM | CC1c2nnc(-c3nc(-c4ccc(F)cc4)no3)n2CCN1C(=O)c1ccc(-c2cccs2)cc1 (centres unmarked) [Compound 209, (3-(3-(4-fluorophenyl)-1,2,4-oxadiazol-5-yl)-8-methyl-5,6-dihydro-[1,2,4]triazolo[4,3-a]pyrazin-7(8H)-yl)(4-(thiophen-2-yl)phenyl)methanone]
< 500 nM | O=C(c1ccc(-c2cccs2)cc1)N1CCn2c(nnc2-c2nc(-c3ccccc3)ns2)C1 [Compound 211, (3-(3-phenyl-1,2,4-thiadiazol-5-yl)-5,6-dihydro-[1,2,4]triazolo[4,3-a]pyrazin-7(8H)-yl)(4-(thiophen-2-yl)phenyl)methanone]
< 500 nM | O=C(c1ccc(F)cc1)N1CCn2c(nnc2-c2nc(-c3ccccc3)ns2)C1 [Compound 212, (4-fluorophenyl)(3-(3-phenyl-1,2,4-thiadiazol-5-yl)-5,6-dihydro-[1,2,4]triazolo[4,3-a]pyrazin-7(8H)-yl)methanone]
< 500 nM | Cc1ccc(-c2ccc(C(=O)N3CCn4c(-c5csc(-c6ccc(F)cc6)n5)nnc4C3C)cc2)s1 (centres unmarked) [Compound 215, (3-(2-(4-fluorophenyl)thiazol-4-yl)-8-methyl-5,6-dihydro-[1,2,4]triazolo[4,3-a]pyrazin-7(8H)-yl)(4-(5-methylthiophen-2-yl)phenyl)methanone]
< 500 nM | CC1c2nnc(-c3csc(-c4ccc(F)cc4)n3)n2CCN1C(=O)c1ccc(C#N)cc1 (centres unmarked) [Compound 216, 4-(3-(2-(4-fluorophenyl)thiazol-4-yl)-8-methyl-5,6,7,8-tetrahydro-[1,2,4]triazolo[4,3-a]pyrazine-7-carbonyl)benzonitrile]
< 500 nM | O=C(c1ccc(-c2ccccc2)cc1)N1CCn2c(nnc2-c2nc(-c3ccccc3)no2)C1 [Compound 217, [1,1′-biphenyl]-4-yl(3-(3-phenyl-1,2,4-oxadiazol-5-yl)-5,6-dihydro-[1,2,4]triazolo[4,3-a]pyrazin-7(8H)-yl)methanone]
1000 to 5000 nM | O=C(c1ccc(F)cc1)N1CCn2c(nnc2-c2csc(-c3ccncc3)n2)C1 [Compound 218, (4-fluorophenyl)(3-(2-(pyridin-4-yl)thiazol-4-yl)-5,6-dihydro-[1,2,4]triazolo[4,3-a]pyrazin-7(8H)-yl)methanone]
< 500 nM | O=C(c1ccc(-c2cccs2)cc1)N1CCn2c(nnc2-c2csc(-c3ccc4ccccc4n3)n2)C1 [Compound 219, (3-(2-(quinolin-2-yl)thiazol-4-yl)-5,6-dihydro-[1,2,4]triazolo[4,3-a]pyrazin-7(8H)-yl)(4-(thiophen-2-yl)phenyl)methanone]
< 500 nM | Cn1nc(-c2ccccc2)cc1-c1nnc2n1CCN(C(=O)c1ccc(-c3cccs3)cc1)C2 [Compound 220, (3-(1-methyl-3-phenyl-1H-pyrazol-5-yl)-5,6-dihydro-[1,2,4]triazolo[4,3-a]pyrazin-7(8H)-yl)(4-(thiophen-2-yl)phenyl)methanone]
500 to 1000 nM | CN(C)c1ccc(-c2nc(-c3nnc4n3CCN(C(=O)c3ccc(F)cc3)C4)cs2)cc1 [Compound 221, (3-(2-(4-(dimethylamino)phenyl)thiazol-4-yl)-5,6-dihydro-[1,2,4]triazolo[4,3-a]pyrazin-7(8H)-yl)(4-fluorophenyl)methanone]
< 500 nM | Cn1nc(-c2nnc3n2CCN(C(=O)c2ccc(-c4cccs4)cc2)C3)cc1-c1ccccc1 [Compound 222, (3-(1-methyl-5-phenyl-1H-pyrazol-3-yl)-5,6-dihydro-[1,2,4]triazolo[4,3-a]pyrazin-7(8H)-yl)(4-(thiophen-2-yl)phenyl)methanone]
< 500 nM | O=C(c1ccc(-c2ccc(F)cc2)cc1)N1CCn2c(nnc2-c2nc(-c3ccccc3)no2)C1 [Compound 223, (4′-fluoro-[1,1′-biphenyl]-4-yl)(3-(3-phenyl-1,2,4-oxadiazol-5-yl)-5,6-dihydro-[1,2,4]triazolo[4,3-a]pyrazin-7(8H)-yl)methanone]
< 500 nM | O=C(c1ccc(-c2cccs2)cc1)N1CCn2c(nnc2-c2csc(-c3ccccn3)n2)C1 [Compound 224, (3-(2-(pyridin-2-yl)thiazol-4-yl)-5,6-dihydro-[1,2,4]triazolo[4,3-a]pyrazin-7(8H)-yl)(4-(thiophen-2-yl)phenyl)methanone]

— US10544150B2, “NK-3 receptor selective antagonist compounds, pharmaceutical composition and methods for use in NK-3 receptors mediated disorders” (Ogeda SA, priority 2010, dated 2020)
